Source: patent EP3521435A1, “A HIGH STRINGENCY SELECTION SYSTEM FOR PROTEIN EXPRESSION IN PROLINE-AUXOTROPHIC CELLS” (Bayer AG, priority 2018, dated 2019)

Test system: CHO-K1 cells
Test: Cell viability post-transfection of transfected cell populations under selection conditions
Assay type: cell-based, Chinese hamster
Conditions: for recovery of cultures: 0.8 mM DHP
Experimental: To efficiently test the impact of different procedures on improving selection stringency, experimental testing in stable cell populations was performed. As test molecules, enhanced green fluorescent protein (GFP) as well as a human IgG1 were chosen. CHO-K1 cells adapted to growth in suspension in defined medium were obtained from SAFC and cultivated in EX-CELL CD CHO Fusion medium (SAFC 14365C). Custom-made EX-CELL CD CHO Fusion medium without L-Proline (Pro) and without L-Ornithine (Orn) ("proline-free medium") was obtained from SAFC. The expression vector system was based on modified versions of "CET 1019 AS-puro-SceI" and "CET 1019 AD-puro-SceI" for GFP and human IgG1, respectively, from Merck-Millipore, containing the Puromycin selection marker (Puromycin N-acetyl-transferase) known to exert a high selection stringency. To minimize variations in cell populations derived from using different transfections or different vectors, the first series of experiments were conducted using vectors into which a P5CS expression cassette was cloned upstream of a UCOE element, in addition to the Puromycin selection marker present downstream of a gene of interest. This way, it was possible to pool different transfections using the same vector to obtain a common starting point, and split the mixture according to different selection conditions, minimizing any variations that are not due to selection conditions themselves. Expression of long and short isoform of murine P5CS (Protein: Delta-1-pyrroline-5-carboxylate synthase; Gene: Aldh18a1; UniProtKB accession number: Q9Z110-1 & Q9Z110-2) was driven by a SV40 promoter. A SV40 polyadenylation sequence was used at the 3' end of the gene. More details can be found in Table 1. Typically, CHO cells were cultivated in EX-CELL CD CHO Fusion medium containing 6 mM GlutaMAX (Thermo Fisher, 35050-38) ("CD-Fusion medium") at 37 °C with 5% CO2. Cells were grown to logarithmic phase under shaking conditions for transfections. 1e7 cells/cuvette were transfected using nucleofection (Amaxa Nucleofector II, following the manufacturer's recommendations) with 5 µg of linearized DNA. After transfection, cells were taken up in 1 ml medium and transferred into 1 well of a 6 well microtiter plate (MTP) already containing 1 ml medium. The cells were incubated for 24 h without shaking, after which 9 ml medium were added and cells were washed (either in standard or proline-free medium). Multiple transfections were pooled, if applicable. Cells were adjusted to 2e5 viable cells/ml and 10 ml were transferred to T-25 flasks. Reference cell populations were selected using 10 µg/ml Puromycin in CD-Fusion medium. For P5CS-based selection, EX-CELL CD CHO Fusion medium (custom-made, SAFC) containing 6 mM GlutaMAX without proline and without ornithine was used ("proline-free" or "CD-Fusion w/o Pro" medium), with or without additional selection pressure.
Cell viability of the different populations was monitored over time. As soon as cell populations appeared to recover from selection pressure, cells were transferred to Shake Flask or TubeSpins for expansion in suspension under shaking conditions. Subsequently, stable cell populations transfected with IgG were seeded at 2e5 viable cells/ml for batch fermentation without selection pressure (i.e. standard CD-Fusion medium containing proline and no other selective agents). The cells were cultivated for 5-10 days, viable cell densities and productivity were monitored over time. IgG titers were determined using Poros A-HPLC method. Typically, final batch titers were recorded at a time point at which majority of cultures had around 70% viability. Stable cell populations transfected with GFP vector were subjected to analysis by flow cytometry using Guava easyCyte 8HT Benchtop Flow Cytometer (Millipore). 250 µl of cell culture were transferred to 96 MTP and washed with PBS. Dead cells were excluded from analysis using propidium iodide (PI). […]

[1] = pJF1555, CD-Fusion w/o Pro + 0.2 mM DHP
[2] = pJF1576, CD-Fusion w/o Pro + 0.2 mM DHP
[3] = pJF1576, CD-Fusion w/o Pro + 0.4 mM DHP
[4] = MOCK, CD Fusion + 10 µg/ml Puromycin
[5] = MOCK, CD-Fusion w/o Pro + 10 µg/ml Puromycin
[6] = MOCK, CD-Fusion w/o Pro + 0.25 mM Pro + 10 µg/ml Puromycin
[7] = pJF1555, CD-Fusion w/o Pro + 0.25 mM Pro + 10 µg/ml Puromycin
[8] = pJF1576, CD-Fusion + 10 µg/ml Puromycin
[9] = pJF2053, CD-Fusion + 10 µg/ml Puromycin

O=C(O)[C@@H]1C=CCN1 [DHP, 3,4-Dehydro-L-Proline]
recovery of cultures (pJF1555, even after prolonged incubations): did not recover
recovery of cultures (pJF1576): did not recover
Viability on day 12 post-transfection (pJF1555, CD-Fusion w/o Pro + 0.05 mM DHP): 83%
Viability on day 12 post-transfection (pJF1555, CD-Fusion w/o Pro + 0.1 mM DHP): 53%
Viability on day 12 post-transfection [1]: 40%
Viability on day 19 post-transfection [1]: 27%
Viability on day 12 post-transfection (pJF1555, CD-Fusion w/o Pro + 0.4 mM DHP): 20%
Viability on day 12 post-transfection (pJF1555, CD-Fusion w/o Pro + 0.8 mM DHP): 13%
Viability on day 19 post-transfection (pJF1555, CD-Fusion w/o Pro + 1 mM DHP): 7%
Viability on day 19 post-transfection (pJF1555, CD-Fusion w/o Pro + 5 mM DHP): 6%
Viability on day 19 post-transfection (pJF1555, CD-Fusion w/o Pro + 10 mM DHP): 7%
DHP concentration at which cultures did not recover (pJF1555, proline-free medium, even after extension of cultivation): ≥ 1 mM
Viability on day 12 post-transfection (pJF1576, CD-Fusion w/o Pro + 0.05 mM DHP): 91%
Viability on day 12 post-transfection (pJF1576, CD-Fusion w/o Pro + 0.1 mM DHP): 74%
Viability on day 12 post-transfection [2]: 49%
Viability on day 21 post-transfection [2]: 87.4%
Viability on day 12 post-transfection [3]: 28%
Viability on day 21 post-transfection [3]: 65.3%
Viability on day 21 post-transfection (pJF1576, CD-Fusion w/o Pro + 0.5 mM DHP): 42.8%
Viability on day 21 post-transfection (pJF1576, CD-Fusion w/o Pro + 0.6 mM DHP): 35.7%
Viability on day 12 post-transfection (pJF1576, CD-Fusion w/o Pro + 0.8 mM DHP): 23%
Viability on day 21 post-transfection (pJF1969, CD-Fusion w/o Pro + 0.2 mM DHP): 26.5%
Viability on day 21 post-transfection (pJF1969, CD-Fusion w/o Pro + 0.4 mM DHP): 22.9%
Viability on day 21 post-transfection (pJF1969, CD-Fusion w/o Pro + 0.5 mM DHP): 23.3%
Viability on day 21 post-transfection (pJF1969, CD-Fusion w/o Pro + 0.6 mM DHP): 25.9%
Viability on day 21 post-transfection (pJF1970, CD-Fusion w/o Pro + 0.2 mM DHP): 18.2%
Viability on day 21 post-transfection (pJF1970, CD-Fusion w/o Pro + 0.4 mM DHP): 21.4%
Viability on day 21 post-transfection (pJF1970, CD-Fusion w/o Pro + 0.5 mM DHP): 18.3%
Viability on day 21 post-transfection (pJF1970, CD-Fusion w/o Pro + 0.6 mM DHP): 18.2%
Viability on day 22 post-transfection (pJF2055, CD-Fusion w/o Pro + 0.02 mM DHP): 99.5%
Viability on day 22 post-transfection (pJF2055, CD-Fusion w/o Pro + 0.03 mM DHP): 99.2%
Viability on day 22 post-transfection (pJF2055, CD-Fusion w/o Pro + 0.04 mM DHP): 99.2%
Viability on day 22 post-transfection (pJF2055, CD-Fusion w/o Pro + 0.06 mM DHP): 83.3%
Viability on day 22 post-transfection (pJF2055, CD-Fusion w/o Pro + 0.07 mM DHP): 65.3%
Viability on day 22 post-transfection (pJF2055, CD-Fusion w/o Pro + 0.08 mM DHP): 36.3%
Viability on day 22 post-transfection (pJF2303, CD-Fusion w/o Pro + 0.02 mM DHP): 99.3%
Viability on day 22 post-transfection (pJF2303, CD-Fusion w/o Pro + 0.04 mM DHP): 99.6%
Viability on day 22 post-transfection (pJF2303, CD-Fusion w/o Pro + 0.06 mM DHP): 99.4%
Viability on day 22 post-transfection (pJF2303, CD-Fusion w/o Pro + 0.08 mM DHP): 99.2%
Viability on day 22 post-transfection (pJF2303, CD-Fusion w/o Pro + 0.2 mM DHP): 98.4%
Viability on day 22 post-transfection (pJF2303, CD-Fusion w/o Pro + 0.3 mM DHP): 98.2%
Viability on day 22 post-transfection (pJF2303, CD-Fusion w/o Pro + 0.4 mM DHP): 98.5%
Viability on day 22 post-transfection (pJF2303, CD-Fusion w/o Pro + 0.5 mM DHP): 99.1%
Viability on day 15 post-transfection (pJF2460, CD-Fusion w/o Pro + 0.01 mM DHP): 73.2%
Viability on day 15 post-transfection (pJF2460, CD-Fusion w/o Pro + 0.03 mM DHP): 44.1%
Viability on day 15 post-transfection (pJF2460, CD-Fusion w/o Pro + 0.04 mM DHP): 30.6%
Viability on day 15 post-transfection (pJF2460, CD-Fusion w/o Pro + 0.05 mM DHP): 22.8%

COc1ccc(C[C@H](N)C(=O)N[C@H]2[C@@H](O)[C@H](n3cnc4c(N(C)C)ncnc43)O[C@@H]2CO)cc1 [Puromycin]
Viability on day 12 post-transfection [4]: 25%
Viability on day 13 post-transfection [4]: 9%
Viability on day 14 post-transfection [4]: 19%
Viability on day 13 post-transfection [5]: 14%
Viability on day 14 post-transfection [5]: 23%
Viability on day 12 post-transfection [6]: 23%
Viability on day 13 post-transfection [6]: 13%
Viability on day 14 post-transfection [6]: 20%
Viability on day 12 post-transfection (Table 8, pJF1555, CD-Fusion w/o Pro + 0.25 mM Pro + 10 µg/ml Puromycin): 83%
Viability on day 12 post-transfection (Table 12, pJF1555, CD-Fusion + 10 µg/ml Puromycin): 86%
Viability on day 12 post-transfection (Table 12, pJF1555, CD-Fusion w/o Pro + 0.25 mM Pro + 10 µg/ml Puromycin): 63%
Viability on day 14 post-transfection (pJF1555, CD Fusion + 10 µg/ml Puromycin): 75%
Viability on day 19 post-transfection (pJF1555, CD-Fusion + 10 µg/ml Puromycin): 49%
Viability on day 14 post-transfection (pJF1555, CD-Fusion w/o Pro + 10 µg/ml Puromycin): 79%
Viability on day 14 post-transfection [7]: 79%
Viability on day 19 post-transfection [7]: 48%
Viability on day 13 post-transfection (pJF1556, CD Fusion + 10 µg/ml Puromycin): 81%
Viability on day 13 post-transfection (pJF1556, CD-Fusion w/o Pro + 10 µg/ml Puromycin): 92%
Viability on day 13 post-transfection (pJF1556, CD-Fusion w/o Pro + 0.25 mM Pro + 10 µg/ml Puromycin): 90%
Viability on day 12 post-transfection [8]: 78%
Viability on day 21 post-transfection [8]: 98.4%
Viability on day 12 post-transfection (pJF1576, CD-Fusion w/o Pro + 0.25 mM Pro + 10 µg/ml Puromycin): 79%
Viability on day 21 post-transfection (pJF1579, CD-Fusion + 10 µg/ml Puromycin): 98.8%
Viability on day 15 post-transfection [9]: 86.6%
Viability on day 22 post-transfection [9]: 98.6%
Viability on day 22 post-transfection (pJF2222, CD-Fusion + 10 µg/ml Puromycin): 98.7%
